From patent US12281125B2, “Rapamycin derivatives” (NOVARTIS AG, priority 2018, dated 2025)

Test system: mTORc1 signaling, pS6 (Ser240/244) in MEF TSCl−/− cells
Test: Cell-based assay for rapalog potency (pS6) in MEF TSCl−/− cells
Conditions: Mus musculus, 2 hours treatment, average from multiple assays
Protocol: Rapalog potency was determined using MEF TSCl−/− cell based assay. MEF TSCl−/− cells are Mouse Embryonic Fibroblasts deficient in Tuberous sclerosis protein—TSCl, which negatively regulates mTORc1 signaling and thus display constitutive mTORc1 activation, resulting in phosphorylation (activation) of downstream molecules. This cell-based assay is used to measure inhibition (de-phosphorylation) of S6 and 4EBP1 by rapalogs or other mTOR inhibitors.
MEF TSCl−/− cells were plated on Poly-D-lysine coated 384 well Griener clear bottom plates and incubated overnight at 37° C., 5% CO2. On the following day, cells were washed 8 times with “Hard starve” solution (1 L DPBS+1 g D-(+) glucose+10 ml of 7.5% Sodium Bicarbonate+20 ml of 1M HEPES) and incubated for further 2 hours in the same solution. Cells were next treated with compounds with decreasing concentrations (8 points at 3.16 fold dilutions) and incubated for 2 hours at 37° C., 5% CO2. Cells were fixed with 4% paraformaldehyde for 30 min and washed 5 times with TBS-EDTA followed by immuno-staining with fluorescent tag labeled antibodies for pS6 (Ser240/244) (Cell Signaling #9468) and p4EBP1 (Thr 37/46) (Cell Signaling #5123). Nuclei were visualized with Hoechst (ThermoFisher Scientific #H3570) staining. Cells were imaged (InCell 600) using respective fluorescence channels and the potency of mTOR inhibitors was defined by pS6 IC50 (nM).
In vitro potency of mTOR inhibitors was defined by pS6 IC50 (nM) in MEF TSCl−/− cells.
IC50 values are calculated as the average from multiple assays.

| SMILES | IC50 |
| --- | --- |
| CO[C@@H]1C[C@H](C[C@@H](C)[C@@H]2CC[C@H](C)/C=C(\C)[C@@H](O)[C@@H](OC)C(=O)[C@H](C)C[C@H](C)/C=C/C=C/C=C(\C)[C@@H](NCCS(=O)(=O)O)C[C@@H]3CC[C@@H](C)[C@@](O)(O3)C(=O)C(=O)N3CCCC[C@H]3C(=O)O2)CC[C@H]1O [Compound 38] | > 500 nM |
| CO[C@@H]1C[C@H](C[C@@H](C)[C@@H]2CC[C@H](C)/C=C(\C)[C@@H](O)[C@@H](OC)C(=O)[C@H](C)C[C@H](C)/C=C/C=C/C=C(\C)[C@H](NCCS(=O)(=O)O)C[C@@H]3CC[C@@H](C)[C@@](O)(O3)C(=O)C(=O)N3CCCC[C@H]3C(=O)O2)CC[C@H]1O [Compound 39] | > 500 nM |
| CO[C@@H]1C[C@H](C[C@@H](C)[C@@H]2CC[C@H](C)/C=C(\C)[C@@H](O)[C@@H](OC)C(=O)[C@H](C)C[C@H](C)/C=C/C=C/C=C(\C)[C@@H](NCCS(=O)(=O)O)C[C@@H]3CC[C@@H](C)[C@@](O)(O3)C(=O)C(=O)N3CCCC[C@H]3C(=O)O2)CC[C@H]1OCCO [Compound 40] | 160 nM |
| CO[C@@H]1C[C@H](C[C@@H](C)[C@@H]2CC[C@H](C)/C=C(\C)[C@@H](O)[C@@H](OC)C(=O)[C@H](C)C[C@H](C)/C=C/C=C/C=C(\C)[C@H](NCCS(=O)(=O)O)C[C@@H]3CC[C@@H](C)[C@@](O)(O3)C(=O)C(=O)N3CCCC[C@H]3C(=O)O2)CC[C@H]1OCCO [Compound 41] | 33 nM |
| CO[C@@H]1C[C@H](C[C@@H](C)[C@@H]2CC[C@H](C)/C=C(\C)[C@@H](O)[C@@H](OC)C(=O)[C@H](C)C[C@H](C)/C=C/C=C/C=C(\C)C(NC(=O)OC(C)(C)C)C[C@@H]3CC[C@@H](C)[C@@](O)(O3)C(=O)C(=O)N3CCCC[C@H]3C(=O)O2)CC[C@H]1O (some centres unmarked) [Intermediate 8] | 0.18 nM |
